Measured values from patent US11046945B2, “Labeled glutaminase proteins, isolated glutaminase protein mutants, methods of use, and kit” (CORNELL UNIVERSITY, priority 2013, dated 2021).

Target: T1, GAC (Mus musculus, UniProt D3Z7P3)
T1 construct: plasmid (residues 72-603 for GAC, 72-674 for KGA); His-tag with thrombin cleavage site (N, cleaved yes); made in house; host or cells: pET23a vector
T1 sequence (D3Z7P3 72-603 isoform D3Z7P3-2): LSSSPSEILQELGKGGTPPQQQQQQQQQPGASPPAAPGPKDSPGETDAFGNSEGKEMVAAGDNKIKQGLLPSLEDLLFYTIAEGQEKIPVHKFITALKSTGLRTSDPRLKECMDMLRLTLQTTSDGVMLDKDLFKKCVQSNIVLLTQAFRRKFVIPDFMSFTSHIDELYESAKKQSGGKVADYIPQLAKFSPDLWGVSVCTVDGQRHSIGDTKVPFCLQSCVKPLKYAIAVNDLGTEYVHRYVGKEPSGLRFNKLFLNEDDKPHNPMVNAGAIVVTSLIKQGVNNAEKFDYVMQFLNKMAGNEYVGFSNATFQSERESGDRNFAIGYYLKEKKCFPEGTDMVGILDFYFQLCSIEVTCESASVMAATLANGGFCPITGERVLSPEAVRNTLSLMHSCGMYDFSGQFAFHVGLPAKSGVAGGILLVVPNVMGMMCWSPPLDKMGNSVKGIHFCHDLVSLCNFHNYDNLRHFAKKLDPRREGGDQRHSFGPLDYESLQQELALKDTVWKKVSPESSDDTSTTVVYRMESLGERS
Experiment: Real-time glutaminase activity assay coupled to GDH (NADH fluorescence)
Format: biochemical
Details: for inhibition of GAC activity: 10 nM 488-GAC or unlabeled WT-GAC, 20 mM glutamine, 50 mM phosphate
Procedure: [formula] where F is the normalized fluorescence at given drug concentration (i.e., F/F0), and Fsat is the normalized fluorescence at saturating concentrations of drug, as shown in FIG. 7A. Real-time activity assays were prepared in 1 mL samples, where 10 units of glutamate dehydrogenase (Sigma) and 2 mM NAD^+ (Sigma) was prepared in 50 mM Tris-Acetate pH=8.5, 0.1 mM EDTA and equilibrated at 20° C. 10 nM WT GAC was added and allowed to equilibrate 2 minutes before beginning to monitor fluorescence of 488-GAC (490 nm excitation, 520 nm emission) and NADH fluorescence (340 nm excitation, 490 nm emission). Appropriate dilutions of 968 or BPTES prepared in DMSO were injected after 30 seconds and allowed to equilibrate for 2 minutes before 180 μL of a solution of 333 mM K2HPO4, 133 mM glutamine, 50 mM Tris-Acetate pH 8.5, 0.1 mM EDTA was added to initiate GAC activation. The activity of GAC was indirectly measured by the NADH produced by the added glutamate dehydrogenase, which converts the product of glutaminase activity, glutamate, to α-ketoglutarate and ammonia through reducing NAD^+ to NADH. Because solutions containing glutamine undergo non-enzymatic degradation to glutamate, samples were further analyzed by subtracting the evolved NADH produced by glutaminase in the presence of 968, BPTES, or the equivalent volume of DMSO as a control, by the evolved NADH produced in the absence of glutaminase under identical experimental conditions. Evolved NADH was quantified using a standard curve of freshly prepared NADH (Sigma) in 50 mM Tris-Acetate pH=8.5, 0.1 mM EDTA.
Procedures for the described real-time binding and inhibition assays were adapted for 96-well microtiter format with minor alterations. Briefly, 2 μL of inhibitor or DMSO was distributed across the 96-well plate followed by addition of 200 μL 10 nM 488-GAC, unlabeled WT-GAC, or no added GAC as a negative control in 50 mM Tris-Acetate pH 8.5, 0.1 mM EDTA and immediate monitoring of 488 fluorescence (490 nm/520 nm excitation/emission, 5 nm/20 nm excitation/emission slits). […]

Structure (SMILES)	inhibition of GAC activity	inhibition of GAC activity at 5 nM versus 50 nM GAC (GAC decreased from 50 nM to 5 nM, 968 pre-incubated)
O=C(Cc1ccccc1)Nc1nnc(CCSCCc2nnc(NC(=O)Cc3ccccc3)s2)s1 [BPTES]	potent inhibition	
CN(C)c1ccc(C2Nc3ccc4ccccc4c3C3=C2C(=O)CC(C)(C)C3)cc1Br (stereo not drawn) [compound 968]	dose-dependent inhibition	higher efficacy and potency
